In patent US20240018108A1, “METHODS AND COMPOSITIONS FOR INHIBITION OF DIHYDROOROTATE DEHYDROGENASE” (OHIO STATE INNOVATION FOUNDATION, priority 2019, published 2024):

Key:
[1] = system: OCI-AML3 cell line; test: MTS assay for cell growth/viability, OCI-AML3; type: cell-based; details: Homo sapiens, OCI-AML-3, 96 hours, Table 2 (one study)
Method: (§1) MTS assay for cell growth/viability: Mitochondrial activity was measured to determine cell proliferation using an MTS assay ([…]). Metabolically active cells convert MTS tetrazolium salt into a purple formazan product that is soluble in tissue culture medium. The amount of formazan measured at 490 nm absorbance is proportional to the number of proliferating cells. MTS assays in AML cell lines were carried out with 20K cells plated per well in 96-well plates with Cpd3 or brequinar in a dose series ranging from 0.0001 to 10 μM. Triplicate wells were set up for each condition. At 96 hours, the MTS reagent was added and after approximately 4 hours the plates were read in a spectrophotometer.
(§2) Biological Activity: Cell proliferation assays were carried out using the MTS assay described herein using two AML cell lines (i.e., MOLM13 and OCI-AML3) with varied genetic backgrounds. The assays were carried out in a blinded fashion.

[2] = system: AML cell lines (MOLM13 and OCI-AML3); test: MTS cell proliferation assay, AML cell lines; type: cell-based; details: range over the two AML cell lines, one study; read-out: growth arrest in AML cell lines, IC50 range
Method: as §1, §2

[3] = system: MOLM13 cell line; test: MTS assay for cell growth/viability, MOLM13; type: cell-based; details: Homo sapiens
Method: as §1, with “MTS assays in AML cell lines were carried out with 20K cells plated per well in 96-well plates with Cpd3 or brequinar in a dose series ranging from 0.0001 to 10 μM.” left out
as §2

[4] = target: T1, h-DHODH (Homo sapiens, UniProt Q02127); test: DHODH enzymatic assay (DCIP reduction); type: biochemical; details: recombinant human enzyme, 25° C., pH 8.0
T1 construct: made in house
Method: DHODH Enzymatic Assay: DHODH activity was determined at 25° C. following the reduction of 2,6-dichloroindophenol sodium salt (DCIP) at 600 nm (ε=18 800 M^−1 cm^−1) on a spectrophotometer. The reaction medium used contained 50 mM Tris-HCl, pH 8.0, 0.1% Triton X-100, 0.1 mM LDHO, 0.025 mM CoQ1, and 0.06 mM DCIP. The reaction was started by addition of the enzyme. The inhibitory potency of the compounds was evaluated by measuring the initial velocity of the reaction either in the absence or in the presence of the compounds at the indicated concentrations. The DHODH enzyme used was the recombinant human enzyme prepared as previously described (Helene Munier-Lehmann, et al., J. Med. Chem. 2015, 58:860-877).

[5] = MOLM-13, Table 3 (second study), dose range of 2 nM to 10000 nM

T1 sequence (Q02127 whole entry): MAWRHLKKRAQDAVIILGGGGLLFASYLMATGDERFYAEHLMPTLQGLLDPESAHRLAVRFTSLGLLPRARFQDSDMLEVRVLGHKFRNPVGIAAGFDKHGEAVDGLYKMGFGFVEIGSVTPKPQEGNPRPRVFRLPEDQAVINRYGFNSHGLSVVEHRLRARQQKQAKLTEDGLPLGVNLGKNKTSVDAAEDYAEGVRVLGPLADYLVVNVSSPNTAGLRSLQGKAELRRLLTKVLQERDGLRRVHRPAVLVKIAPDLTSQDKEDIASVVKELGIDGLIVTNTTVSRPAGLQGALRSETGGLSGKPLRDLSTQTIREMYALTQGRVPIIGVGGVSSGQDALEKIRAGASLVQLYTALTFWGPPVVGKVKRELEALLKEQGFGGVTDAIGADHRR

Compound	IC50 [1] [nM]	IC50 [2] [nM]	IC50 ([3]; MOLM-13, 96 hours, Table 2 (one study)) [nM]	IC50 [3, 5] [nM]	IC50 [4] [nM]
CCOc1ccc(-c2ccc(-c3cc(C(=O)O)c4cc(F)ccc4n3)cc2F)cc1 [Cpd1, 2-(4′-ethoxy-2-fluoro-[1,1′-biphenyl]-4-yl)-6-fluoroquinoline-4-carboxylic acid]	19.5	14.5 to 19.5	14.5	13	2.43
CCOc1cccc(-c2ccc(-c3cc(C(=O)O)c4cc(F)ccc4n3)cc2F)c1 [Cpd2, 2-(3′-ethoxy-2-fluoro-[1,1′-biphenyl]-4-yl)-6-fluoroquinoline-4-carboxylic acid]	–	–	–	16	< 0.5
CCCCOc1cccc(-c2ccc(-c3cc(C(=O)O)c4cc(F)ccc4n3)cc2F)c1 [Cpd3, 2-(3′-butoxy-2-fluoro-[1,1′-biphenyl]-4-yl)-6-fluoroquinoline-4-carboxylic acid]	–	–	–	16	< 0.5
O=C(O)c1cc(-c2ccc(-c3ccccc3)c(F)c2)nc2ccc(F)cc12 [Cpd4]	–	–	–	41	0.72
O=C(O)c1cc(-c2ccc(-c3ccccc3F)c(F)c2)nc2ccc(F)cc12 [Cpd5, 2-(2,2′-difluoro-[1,1′-biphenyl]-4-yl)-6-fluoroquinoline-4-carboxylic acid]	–	–	–	14	1.66
CCNc1ccc(-c2ccc(-c3cc(C(=O)O)c4cc(F)ccc4n3)cc2F)cc1 [Cpd6, 2-(4′-(ethylamino)-2-fluoro-[1,1′-biphenyl]-4-yl)-6-fluoroquinoline-4-carboxylic acid]	–	–	–	< 2	1.34
CCOc1ccc(-c2cc(F)c(-c3cc(C(=O)O)c4cc(F)ccc4n3)cc2F)cc1 [Cpd7, 2-(4′-ethoxy-2,5-difluoro-[1,1′-biphenyl]-4-yl)-6-fluoroquinoline-4-carboxylic acid]	–	–	–	< 2	1.4
CCOc1cccc(-c2cc(F)c(-c3cc(C(=O)O)c4cc(F)ccc4n3)cc2F)c1 [Cpd8, 2-(3′-ethoxy-2,5-difluoro-[1,1′-biphenyl]-4-yl)-6-fluoroquinoline-4-carboxylic acid]	–	–	–	< 2	< 0.51
CCOc1ccc(-c2ccc(-c3cc(C(=O)O)c4cc(F)ccc4n3)c(F)c2)cc1 [Cpd9, 2-(4′-ethoxy-3-fluoro-[1,1′-biphenyl]-4-yl)-6-fluoroquinoline-4-carboxylic acid]	–	–	–	–	5.5
CCOc1cccc(-c2ccc(-c3cc(C(=O)O)c4cc(F)ccc4n3)c(F)c2)c1 [Cpd10, 2-(3′-ethoxy-3-fluoro-[1,1′-biphenyl]-4-yl)-6-fluoroquinoline-4-carboxylic acid]	–	–	–	< 2	0.7
CCCCOc1cccc(-c2cc(F)c(-c3cc(C(=O)O)c4cc(F)ccc4n3)cc2F)c1 [Cpd11, 2-(3′-butoxy-2,5-difluoro-[1,1′-biphenyl]-4-yl)-6-fluoroquinoline-4-carboxylic acid]	–	–	–	–	< 0.51
CCCCOc1cccc(-c2ccc(-c3cc(C(=O)O)c4cc(F)ccc4n3)c(F)c2)c1 [Cpd12, 2-(3′-butoxy-3-fluoro-[1,1′-biphenyl]-4-yl)-6-fluoroquinoline-4-carboxylic acid]	–	–	–	< 2	0.7
CCOc1ccc(-c2ccc(-c3cc(C(=O)O)c4cc(F)ccc4n3)cc2C)cc1 [Cpd13, 2-(4′-ethoxy-2-methyl-[1,1′-biphenyl]-4-yl)-6-fluoroquinoline-4-carboxylic acid]	–	–	–	< 2	1.5
CCOc1cccc(-c2ccc(-c3cc(C(=O)O)c4cc(F)ccc4n3)cc2C)c1 [Cpd14]	–	–	–	< 2	1.4
CCOc1ccc(-c2ccc(-c3cc(C(=O)O)c4cc(F)ccc4n3)cc2OC)cc1 [Cpd15, 2-(4′-ethoxy-2-methoxy-[1,1′-biphenyl]-4-yl)-6-fluoroquinoline-4-carboxylic acid]	–	–	–	< 2	4.2
CCOc1cccc(-c2ccc(-c3cc(C(=O)O)c4cc(F)ccc4n3)cc2OC)c1 [Cpd16, 2-(3′-ethoxy-2-methoxy-[1,1′-biphenyl]-4-yl)-6-fluoroquinoline-4-carboxylic acid]	–	–	–	< 2	1.3
CCOc1ccc(-c2cc(F)c(-c3cc(C(=O)O)c4cc(F)ccc4n3)c(F)c2)cc1 [Cpd17, 2-(4′-ethoxy-3,5-difluoro-[1,1′-biphenyl]-4-yl)-6-fluoroquinoline-4-carboxylic acid]	–	–	–	43	6.2
CCOc1cccc(-c2cc(F)c(-c3cc(C(=O)O)c4cc(F)ccc4n3)c(F)c2)c1 [Cpd18]	–	–	–	< 2	1.2
CCOc1ccc(-c2ccc(-c3cc(C(=O)O)c4cc(F)ccc4n3)cc2Cl)cc1 [Cpd19, 2-(2-chloro-4′-ethoxy-[1,1′-biphenyl]-4-yl)-6-fluoroquinoline-4-carboxylic acid]	–	–	–	< 2	1.1
CCOc1cccc(-c2ccc(-c3cc(C(=O)O)c4cc(F)ccc4n3)cc2Cl)c1 [Cpd20, 2-(2-chloro-3′-ethoxy-[1,1′-biphenyl]-4-yl)-6-fluoroquinoline-4-carboxylic acid]	–	–	–	< 2	0.6
CCOc1ccc(-c2ccc(-c3cc(C(=O)O)c4cc(F)ccc4n3)c(C)c2)cc1 [Cpd21, 2-(4′-ethoxy-3-methyl-[1,1′-biphenyl]-4-yl)-6-fluoroquinoline-4-carboxylic acid]	–	–	–	538	11.6
CCCCOc1cccc(-c2ccc(-c3cc(C(=O)O)c4cc(F)ccc4n3)c(C)c2)c1 [Cpd22, 2-(3′-butoxy-3-methyl-[1,1′-biphenyl]-4-yl)-6-fluoroquinoline-4-carboxylic acid]	–	–	–	34	< 0.51
CCOc1ccc(-c2ccc(-c3cc(C(=O)O)c4cc(F)ccc4n3)c(OC)c2)cc1 [Cpd23, 2-(4′-ethoxy-3-methoxy-[1,1′-biphenyl]-4-yl)-6-fluoroquinoline-4-carboxylic acid]	–	–	–	532	16
CCOc1ccc(-c2ccc(-c3cc(C(=O)O)c4cc(F)ccc4n3)c(Cl)c2)cc1 [Cpd24, 2-(3-chloro-4′-ethoxy-[1,1′-biphenyl]-4-yl)-6-fluoroquinoline-4-carboxylic acid]	–	–	–	464	22.2
CCCCOc1cccc(-c2ccc(-c3cc(C(=O)O)c4cc(F)ccc4n3)cc2C)c1 [Cpd25, 2-(3′-butoxy-2-methyl-[1,1′-biphenyl]-4-yl)-6-fluoroquinoline-4-carboxylic acid]	–	–	–	< 2	< 0.51
CCCCOc1cccc(-c2ccc(-c3cc(C(=O)O)c4cc(F)ccc4n3)c(OC)c2)c1 [Cpd26, 2-(3′-butoxy-3-methoxy-[1,1′-biphenyl]-4-yl)-6-fluoroquinoline-4-carboxylic acid]	–	–	–	11	0.7
CCCCOc1cccc(-c2ccc(-c3cc(C(=O)O)c4cc(F)ccc4n3)c(Cl)c2)c1 [Cpd27]	–	–	–	16	< 0.51
